Measured values published in patent US20250197372A1 (priority 2020, published 2025).

Experiments:
Format in all cases: biochemical
[1] = target: T1, recombinant alpha-glucosidase II (murine full-length glucosidase II, alpha and beta subunits, Glu 2) (Mus musculus, UniProt Q8BHN3); assay: Alpha-glucosidase II assay (4-methylumbelliferyl-alpha-D-pyranoside substrate, fluorescence); conditions: Glucosidase 2; read-out: Glu2 IC50
T1 construct: made in house; host or cells: HEK-293T cells transduced with BacMam viruses (75% alpha, 25% beta); protein harvested from culture supernatant

[2] = target: recombinant human GAA (acid alpha-glucosidase) (Homo sapiens, UniProt P10253); assay: Acid alpha-glucosidase (GAA) assay (4-methylumbelliferyl-alpha-D-pyranoside substrate, fluorescence)
Procedure, shortened: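 Recombinant human enzyme preincubated 60 min at 37 °C with compound dilutions, then 4-methylumbelliferyl-alpha-D-pyranoside substrate added for 20 min at 37 °C. Stopped with glycine/NaOH pH 10; methylumbelliferone fluorescence (ex 365, em 440 nm) versus untreated enzyme; IC50 by 4-PL fit.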

[3] = target: rat sucrase (partially purified alpha-glucosidase from intestinal rat powder) (Rattus norvegicus, UniProt P23739); assay: Intestinal alpha-glucosidase assay, sucrose substrate (Glucose GO Kit)
Procedure, shortened: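 Rat intestinal enzyme prep + test cpd dilutions, 60 min 37 °C; add maltose (maltase) or sucrose (sucrase), 30 min 37 °C; stop 90 °C 5 min. Glucose readout (glucose oxidase kit). IC50 from 4-PL fit of % inhibition vs conc.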

[4] = target: T2, recombinant human GBA (beta-glucocerebrosidase) (Homo sapiens, UniProt P04062); assay: Beta-glucocerebrosidase (GBA, glucosylceramidase) assay (4-methylumbelliferyl-beta-D-pyranoside substrate, fluorescence)
T2 sequence (P04062 40-536): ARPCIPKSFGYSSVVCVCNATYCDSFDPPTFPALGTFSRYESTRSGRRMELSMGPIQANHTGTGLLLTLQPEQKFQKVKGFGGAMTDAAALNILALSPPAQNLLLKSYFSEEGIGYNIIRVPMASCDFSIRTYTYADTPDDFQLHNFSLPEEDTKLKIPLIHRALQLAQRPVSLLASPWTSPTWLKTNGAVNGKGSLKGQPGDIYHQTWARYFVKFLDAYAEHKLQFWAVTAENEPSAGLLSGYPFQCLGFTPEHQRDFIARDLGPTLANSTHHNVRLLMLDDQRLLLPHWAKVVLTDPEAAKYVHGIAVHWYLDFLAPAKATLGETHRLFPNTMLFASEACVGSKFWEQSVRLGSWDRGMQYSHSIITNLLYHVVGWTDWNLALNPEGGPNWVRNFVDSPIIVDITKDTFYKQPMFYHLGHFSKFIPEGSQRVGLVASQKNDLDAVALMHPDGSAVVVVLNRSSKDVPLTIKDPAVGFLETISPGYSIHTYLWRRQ
Procedure, shortened: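 Recombinant human GBA preincubated with compound dilutions 60 min at 37 °C, then 4-methylumbelliferyl-beta-D-pyranoside added for 60 min at 37 °C. Stopped at pH 10 (glycine/NaOH); fluorescence ex 365/em 440 nm. IC50 from 4-PL fit of inhibition relative to untreated enzyme.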

[5] = target: rat maltase (partially purified alpha-glucosidase from intestinal rat powder); assay: Intestinal alpha-glucosidase assay, maltose substrate (Glucose GO Kit)
Procedure, shortened: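 First step: 60 min, 37 °C, compound with partially purified rat intestinal alpha-glucosidase. Next, maltose or sucrose for 30 min at 37 °C, ended at 90 °C for 5 min. Glucose quantified enzymatically; concentration–inhibition data fitted 4-PL for IC50.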

T1 sequence (O08795 15-521): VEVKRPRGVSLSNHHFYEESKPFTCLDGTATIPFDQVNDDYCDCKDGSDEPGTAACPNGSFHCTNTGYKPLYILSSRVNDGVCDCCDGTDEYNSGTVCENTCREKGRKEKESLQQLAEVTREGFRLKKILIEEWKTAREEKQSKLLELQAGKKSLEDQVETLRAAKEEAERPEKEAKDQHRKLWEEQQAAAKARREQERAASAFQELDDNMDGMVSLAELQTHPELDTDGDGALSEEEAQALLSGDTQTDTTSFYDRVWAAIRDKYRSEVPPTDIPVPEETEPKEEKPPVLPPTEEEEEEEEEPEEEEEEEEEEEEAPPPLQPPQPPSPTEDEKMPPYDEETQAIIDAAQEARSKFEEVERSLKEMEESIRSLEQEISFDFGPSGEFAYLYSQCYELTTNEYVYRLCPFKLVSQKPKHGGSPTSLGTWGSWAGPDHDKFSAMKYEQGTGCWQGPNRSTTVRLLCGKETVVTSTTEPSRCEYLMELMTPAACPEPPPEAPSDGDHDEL
T1 sequence (Q8BHN3 33-944): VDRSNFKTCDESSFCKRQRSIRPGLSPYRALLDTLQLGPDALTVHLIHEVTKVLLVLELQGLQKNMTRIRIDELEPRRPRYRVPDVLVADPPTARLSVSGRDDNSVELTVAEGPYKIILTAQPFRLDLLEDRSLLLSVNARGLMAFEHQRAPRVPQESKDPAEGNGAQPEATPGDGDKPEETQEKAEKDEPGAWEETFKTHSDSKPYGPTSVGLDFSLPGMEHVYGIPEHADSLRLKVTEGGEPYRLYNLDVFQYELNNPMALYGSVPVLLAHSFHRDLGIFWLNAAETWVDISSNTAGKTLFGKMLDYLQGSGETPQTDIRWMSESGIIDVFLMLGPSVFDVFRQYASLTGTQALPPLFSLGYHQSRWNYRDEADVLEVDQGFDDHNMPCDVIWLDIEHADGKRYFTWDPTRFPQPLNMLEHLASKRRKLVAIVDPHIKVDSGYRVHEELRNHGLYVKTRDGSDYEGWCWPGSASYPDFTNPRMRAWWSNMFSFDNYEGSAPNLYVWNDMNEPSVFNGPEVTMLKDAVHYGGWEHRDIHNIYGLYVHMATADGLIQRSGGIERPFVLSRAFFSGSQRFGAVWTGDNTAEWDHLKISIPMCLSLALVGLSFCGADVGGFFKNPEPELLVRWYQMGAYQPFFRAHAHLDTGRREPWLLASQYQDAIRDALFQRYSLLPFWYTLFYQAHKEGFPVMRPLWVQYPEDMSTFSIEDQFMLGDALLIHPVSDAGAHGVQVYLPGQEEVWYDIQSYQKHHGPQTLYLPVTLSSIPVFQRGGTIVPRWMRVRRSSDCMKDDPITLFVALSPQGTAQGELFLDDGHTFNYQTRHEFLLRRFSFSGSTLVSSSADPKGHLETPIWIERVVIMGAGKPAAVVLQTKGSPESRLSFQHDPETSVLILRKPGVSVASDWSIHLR
Sequence of rat sucrase (partially purified alpha-glucosidase from intestinal rat powder) (P23739 whole entry): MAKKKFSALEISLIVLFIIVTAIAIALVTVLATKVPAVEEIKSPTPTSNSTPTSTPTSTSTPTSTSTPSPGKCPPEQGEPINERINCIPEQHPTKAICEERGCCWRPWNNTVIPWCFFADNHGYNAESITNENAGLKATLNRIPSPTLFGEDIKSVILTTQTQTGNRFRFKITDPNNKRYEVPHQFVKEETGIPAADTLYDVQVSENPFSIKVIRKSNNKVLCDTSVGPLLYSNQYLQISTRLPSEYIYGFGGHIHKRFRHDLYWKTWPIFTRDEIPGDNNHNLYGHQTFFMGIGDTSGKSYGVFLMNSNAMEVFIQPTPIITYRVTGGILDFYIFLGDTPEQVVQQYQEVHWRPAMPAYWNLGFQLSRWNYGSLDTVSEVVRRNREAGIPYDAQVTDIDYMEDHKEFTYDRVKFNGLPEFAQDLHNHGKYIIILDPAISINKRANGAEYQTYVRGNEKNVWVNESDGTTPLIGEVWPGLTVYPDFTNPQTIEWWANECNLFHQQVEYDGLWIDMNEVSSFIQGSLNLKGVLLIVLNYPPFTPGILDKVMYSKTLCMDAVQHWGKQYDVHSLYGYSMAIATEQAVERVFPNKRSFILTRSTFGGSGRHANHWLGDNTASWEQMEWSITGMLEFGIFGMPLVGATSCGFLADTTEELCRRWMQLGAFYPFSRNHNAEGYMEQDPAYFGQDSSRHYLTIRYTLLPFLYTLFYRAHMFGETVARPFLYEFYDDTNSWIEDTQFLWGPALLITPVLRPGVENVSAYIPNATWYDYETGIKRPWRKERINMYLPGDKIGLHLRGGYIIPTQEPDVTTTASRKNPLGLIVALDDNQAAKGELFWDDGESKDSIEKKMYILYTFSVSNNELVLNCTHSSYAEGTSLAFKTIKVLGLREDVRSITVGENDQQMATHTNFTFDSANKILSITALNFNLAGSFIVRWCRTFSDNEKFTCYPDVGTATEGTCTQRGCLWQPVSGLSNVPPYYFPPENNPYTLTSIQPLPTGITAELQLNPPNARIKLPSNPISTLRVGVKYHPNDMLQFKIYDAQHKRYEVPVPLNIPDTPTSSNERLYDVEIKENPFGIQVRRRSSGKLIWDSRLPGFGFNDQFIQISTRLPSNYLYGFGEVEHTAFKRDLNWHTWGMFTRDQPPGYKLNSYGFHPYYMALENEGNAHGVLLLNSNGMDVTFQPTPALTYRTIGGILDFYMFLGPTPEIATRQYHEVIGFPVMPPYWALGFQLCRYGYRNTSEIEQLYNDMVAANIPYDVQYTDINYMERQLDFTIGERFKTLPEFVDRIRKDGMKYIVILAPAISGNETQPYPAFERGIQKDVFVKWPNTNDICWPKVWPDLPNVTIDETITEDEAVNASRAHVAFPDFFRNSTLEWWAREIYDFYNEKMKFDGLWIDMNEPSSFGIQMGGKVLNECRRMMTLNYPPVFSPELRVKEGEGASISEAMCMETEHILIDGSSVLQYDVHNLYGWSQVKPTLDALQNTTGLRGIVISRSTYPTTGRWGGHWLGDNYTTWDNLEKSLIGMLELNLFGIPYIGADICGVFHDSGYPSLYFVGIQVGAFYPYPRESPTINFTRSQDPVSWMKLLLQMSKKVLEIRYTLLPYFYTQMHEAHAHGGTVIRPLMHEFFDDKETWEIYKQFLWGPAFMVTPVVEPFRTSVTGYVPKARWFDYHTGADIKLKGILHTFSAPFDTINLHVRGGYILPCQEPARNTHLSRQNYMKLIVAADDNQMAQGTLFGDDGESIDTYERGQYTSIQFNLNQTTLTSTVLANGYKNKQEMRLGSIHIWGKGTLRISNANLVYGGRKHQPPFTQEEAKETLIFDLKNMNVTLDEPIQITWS

## O=[N+]([O-])c1cc(-c2ncco2)ccc1NCCc1ccc(CCN2C[C@H](O)[C@@H](O)[C@H](O)[C@H]2CO)cc1 [Compound 1112, (2R,3R,4R,5S)-2-(hydroxymethyl)-1-{2-[4-(2-{[2-nitro-4-(1,3-oxazol-2-yl)phenyl]amino}ethyl)phenyl]ethyl}piperidine-3,4,5-triol]
[1]
  IC50: 101 nM
[2]
  IC50: 105 nM
[3]
  IC50: 915 nM
[4]
  IC50: 4.99 µM
[5]
  IC50: 1 nM

## O=[N+]([O-])c1cc(-c2ncccn2)ccc1NCc1cccc(CN2C[C@H](O)[C@@H](O)[C@H](O)[C@H]2CO)c1 [Compound 1090, (2R,3R,4R,5S)-2-(hydroxymethyl)-1-{[3-({[2-nitro-4-(pyrimidin-2-yl)phenyl]amino}methyl)phenyl]methyl}piperidine-3,4,5-triol]
[1]
  IC50: 13800 nM
[2]
  IC50: 509 nM
[3]
  IC50: 2 nM
[4]
  IC50: 32.4 µM
[5]
  IC50: 34 nM

## Cc1cc(CN2CCOCC2)cc(NCCCCCCN2C[C@H](O)[C@@H](O)[C@H](O)[C@H]2CO)c1 [Compound 1003, (2R,3R,4R,5S)-2-(hydroxymethyl)-1-[6-({3-methyl-5-[(morpholin-4-yl)methyl]phenyl}amino)hexyl]piperidine-3,4,5-triol]
[1]
  IC50: 2 nM
[2]
  IC50: 299 nM
[3]
  IC50: 382 nM
[4]
  IC50: 7.68 µM
[5]
  IC50: 21 nM

## O=[N+]([O-])c1cc(CN2CCCO2)ccc1NCCc1ccc(CCN2C[C@H](O)[C@@H](O)[C@H](O)[C@H]2CO)cc1 [Compound 1108, (2R,3R,4R,5S)-2-(hydroxymethyl)-1-(2-{4-[2-({2-nitro-4-[(1,2-oxazolidin-2-yl)methyl]phenyl}amino)ethyl]phenyl}ethyl)piperidine-3,4,5-triol]
[1]
  IC50: 7 nM
[2]
  IC50: 311 nM
[3]
  IC50: 908 nM
[4]
  IC50: 6 µM
[5]
  IC50: 98 nM

## OC[C@@H]1[C@@H](O)[C@H](O)[C@@H](O)CN1Cc1ccc(CNc2ccc(C3=COCCO3)cc2)cc1 [Compound 1093, (2R,3R,4R,5S)-1-{[4-({[4-(5,6-dihydro-1,4-dioxin-2-yl)phenyl]amino}methyl)phenyl]methyl}-2-(hydroxymethyl)piperidine-3,4,5-triol]
[1]
  IC50: 1040 nM
[2]
  IC50: 108 nM
[3]
  IC50: 7 nM
[4]
  IC50: 7.48 µM
[5]
  IC50: 2 nM

## N#Cc1cc(NCc2ccc(CN3C[C@H](O)[C@@H](O)[C@H](O)[C@H]3CO)cc2)cc(-c2ccc[nH]2)c1 [Compound 1063, 3-(1H-pyrrol-2-yl)-5-{[(4-{[(2R,3R,4R,5S)-3,4,5-trihydroxy-2-(hydroxymethyl)piperidin-1-yl]methyl}phenyl)methyl]amino}-benzonitrile]
[1]
  IC50: 70 nM
[2]
  IC50: 32 nM
[3]
  IC50: < 1 nM
[4]
  IC50: > 100 µM
[5]
  IC50: < 1 nM
